For one test, the system named is MV-4-11. Briefly: Cell proliferation assay (MTS/PMS). The test is classed as cell-based. To be noted: Homo sapiens, MV4-11.
Another test concerns the target T1, SHP2 (Homo sapiens, UniProt Q06124).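 Also: compounds preincubated 30 min at room temperature in the assay mixture, activity referenced to a 0.5% (v/v) DMSO control taken as 100%, run in triplicate.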
T1 sequence (Q06124 1-593): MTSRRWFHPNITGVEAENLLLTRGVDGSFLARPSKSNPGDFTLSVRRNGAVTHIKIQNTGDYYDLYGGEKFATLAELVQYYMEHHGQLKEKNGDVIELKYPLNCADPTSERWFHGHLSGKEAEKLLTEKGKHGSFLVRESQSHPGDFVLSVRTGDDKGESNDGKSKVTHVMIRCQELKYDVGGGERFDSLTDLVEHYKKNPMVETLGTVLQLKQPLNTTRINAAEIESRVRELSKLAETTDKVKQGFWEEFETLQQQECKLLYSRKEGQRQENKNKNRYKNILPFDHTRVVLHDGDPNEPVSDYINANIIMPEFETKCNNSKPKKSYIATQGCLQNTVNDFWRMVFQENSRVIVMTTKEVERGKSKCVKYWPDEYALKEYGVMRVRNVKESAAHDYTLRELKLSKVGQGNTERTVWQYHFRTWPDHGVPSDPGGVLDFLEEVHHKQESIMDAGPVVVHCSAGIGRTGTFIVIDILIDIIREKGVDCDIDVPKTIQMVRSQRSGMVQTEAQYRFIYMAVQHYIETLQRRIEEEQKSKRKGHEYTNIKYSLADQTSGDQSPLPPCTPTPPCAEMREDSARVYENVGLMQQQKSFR
The test is described as follows: biochemical. To be noted: read-out: SHP2 inhibition (%)@0.1 μM.

The mark [1] stands for this setting: MV-4-11 cell proliferation, MTS/PMS readout at day 8, compounds added 24 hours after plating, read-out: IC50.

The source of these data is US10988466B2, “Heterocyclic derivatives useful as SHP2 inhibitors” (Jacobio Pharmaceuticals Co., Ltd., priority 2017, dated 2021).

Where two headings read alike, the source gives them in different places.

For orientation: IC50 means the concentration that gives 50% inhibition. In general, inhibition refers to the percentage by which the read-out fell short of the control. Take `Nc1nccc(Sc2cnc(N3CCC4(CC3)Cc3ncccc3[C@H]4N)cn2)c1F` [Example 92, (S)-1′-(5-((2-amino-3-fluoropyridin-4-yl)thio)pyrazin-2-yl)-5,7-dihydrospiro[cyclopenta [b]pyridine-6,4′-piperidin]-5-amine]: in the test with MV-4-11 (setting [1]), the concentration for half-maximal inhibition (IC50) was 9 nM. The inhibition at 0.1 µM at SHP2 was 92%.

With `Nc1nc(N2CCC3(CC2)Cc2nc(Cl)sc2[C@H]3N)cnc1Sc1ccnc(N)c1Cl` [Example 69, (S)-1′-(6-amino-5-((2-amino-3-chloropyridin-4-yl)thio)pyrazin-2-yl)-2-chloro-4,6-dihydro-spiro[cyclopenta[d]thiazole-5,4′-piperidin]-6-amine], the IC50 with MV-4-11 (setting [1]) came out at 4 nM. Also, the inhibition at 0.1 µM on SHP2 amounted to 89%.

As to `Nc1nc(N2CCC3(CC2)Cc2nc4ccccc4cc2[C@H]3N)cnc1Sc1ccnc(N)c1Cl` [Example 64, (S)-1′-(6-amino-5-((2-amino-3-chloropyridin-4-yl)thio)pyrazin-2-yl)-1,3-dihydrospiro[cyclopenta [b]quinoline-2, 4′-piperidin]-1-amine], the IC50 in the test with MV-4-11 (setting [1]) worked out at 8.1 nM. Further, the inhibition at 0.1 µM at SHP2 stood at 66%.

As for `COc1cccc2c1CC1(CCN(c3cnc(Sc4ccnc(N)c4Cl)c(N)n3)CC1)[C@@H]2N` [Example 14, (S)-1′-(6-amino-5-((2-amino-3-chloropyridin-4-yl)thio)pyrazin-2-yl)-4-methoxy-1,3-dihydrospiro[2,4′-piperidin]-1-amine], the IC50 in the test with MV-4-11 (setting [1]) worked out at 6 nM. Further, the inhibition at 0.1 µM at SHP2 was determined as 82%.

Consider `N[C@@H]1c2cccnc2CC12CCN(c1cnc(Sc3ccnc(Cl)c3Cl)cn1)CC2` [Example 104, (S)-1′-(5-((2,3-dichloropyridin-4-yl)thio)pyrazin-2-yl)-5,7-dihydrospiro [cyclopenta [b]pyridine-6,4′-piperidin]-5-amine], for which, in the test on MV-4-11 (setting [1]), the IC50 was 9 nM. In addition, the inhibition at 0.1 µM on SHP2 worked out at 87%.

Turning to `Nc1nccc(Sc2cnc(N3CCC4(CC3)Cc3nc(Cl)sc3[C@H]4N)cn2)c1Cl` [Example 68, (S)-1′-(5-((2-amino-3-chloropyridin-4-yl)thio)pyrazin-2-yl)-2-chloro-4,6-dihydrospiro[cyclopenta [d]thiazole-5,4′-piperidin]-amine], the half-maximal inhibitory concentration (IC50) in the test on MV-4-11 (setting [1]) is 4.9 nM. In addition, the inhibition at 0.1 µM on SHP2 came out at 82%.

Take `Nc1nc(N2CCC3(CC2)Oc2ccccc2[C@H]3N)cnc1Sc1ccnc(N)c1Cl` [Example 45, (R)-1′-(6-amino-5-((2-amino-3-chloropyridin-4-yl)thio)pyrazin-2-yl)-3H-spiro[benzofuran-2,4′-piperidin]-3-amine]: 2.5 nM corresponded to half-maximal inhibition in the test with MV-4-11 (IC50). Besides, the inhibition at 0.1 µM at SHP2 is 68%.

For the compound `Nc1nc(N2CCC3(CC2)Cc2ncccc2[C@H]3N)cnc1Sc1ccnc2ccccc12` [Example 83, (S)-1′-(6-amino-5-(quinolin-4-yl-thio)pyrazin-2-yl)-5,7-dihydrospiro [cyclopenta[b]pyridine-6,4′-piperidin]-5-amine], the IC50 in the test with MV-4-11 (setting [1]) was 16 nM. Further, the inhibition at 0.1 µM on SHP2 was found to be 91%.

As to `Nc1nc(N2CCC3(CC2)Cc2ncccc2[C@H]3N)cnc1Sc1ccnc(N)c1F` [Example 91, (S)-1′-(6-amino-5-((2-amino-3-fluoropyridin-4-yl)thio)pyrazin-2-yl)-5,7-dihydrospiro [cyclopenta [b]pyridine-6,4′-piperidin]-5-amine], in the test with MV-4-11 (setting [1]), the IC50 was 12 nM. Further, the inhibition at 0.1 µM on SHP2 amounted to 88%.

As to `Nc1nccc(Sc2cnc(N3CCC4(CC3)Cc3ncsc3[C@H]4N)cn2)c1Cl` [Example 156, (S)-1′-(5-((2-amino-3-chloropyridin-4-yl)thio)pyrazin-2-yl)-4,6-dihydrospiro[cyclopenta[d]thiazole-5,4′-piperidin]-6-amine], the 50% inhibitory concentration (IC50) in the test on MV-4-11 (setting [1]) was determined as 46.1 nM. Also, the inhibition at 0.1 µM on SHP2 was 80%.

For `COc1nccc(Sc2cnc(N3CCC4(CC3)Cc3ncccc3[C@H]4N)cn2)c1Cl` [Example 99, (S)-1′-(5-((3-chloro-2-methoxy-pyridin-4-yl)thio)pyrazin-2-yl)-5,7-dihydrospiro [cyclopenta[b]pyridine-6,4′-piperidin]-5-amine], in the test with MV-4-11 (setting [1]), the IC50 was determined as 18 nM. The inhibition at 0.1 µM on SHP2 turned out to be 89%.

On to `Nc1nc(N2CCC3(CC2)Cc2ncccc2[C@H]3N)cnc1Sc1ccnc(Cl)c1Cl` [Example 105, (S)-1′-(6-amino-5-((2,3-dichloro-pyridin-4-yl)thio)pyrazin-2-yl)-5,7-dihydrospiro[cyclo-penta[b]pyridine-6,4′-piperidin]-5-amine], for which, in the test with MV-4-11 (setting [1]), the IC50 was 11 nM.

Turning to `COc1ccc2c(c1)CC1(CCN(c3cnc(Sc4ccnc(N)c4Cl)c(N)n3)CC1)C2=N` [Example 143, 3-((2-amino-3-chloropyridin-4-yl)thio)-6-(1-imino-5-methoxy-1,3-dihydro-spiro[indene-2,4′-piperidin]-1′-yl)pyrazin-2-amine], the inhibition at 0.1 µM on SHP2 came to 72%.

Turning to `Nc1nc(N2CCC3(CC2)Cc2cc(F)c(Br)cc2[C@H]3N)cnc1Sc1ccnc(N)c1Cl` [Example 38, (S)-1′-(6-amino-5-((2-amino-3-chloropyridin-4-yl)thio)pyrazin-2-yl)-6-bromo-5-fluoro-1,3-dihydrospiro[indene-2,4′-piperidin]-1-amine], the inhibition at 0.1 µM on SHP2 was 75%.

Turning to `Nc1nc(N2CCC3(CC2)Cc2c(Br)cccc2[C@H]3N)cnc1Sc1ccnc(N)c1Cl` [Example 29, (S)-1′-(6-amino-5-((2-amino-3-chloropyridin-4-yl)thio)pyrazin-2-yl)-4-bromo-1,3-dihydro-spiro[indene-2,4′-piperidin]-1-amine], at SHP2, the inhibition at 0.1 µM was 77%.

On to `Nc1nc(N2CCC3(CC2)Cc2ncc(Cl)cc2[C@H]3N)cnc1Sc1ccnc(N)c1Cl` [Example 73, (S)-1′-(6-amino-5-((2-amino-3-chloropyridin-4-yl)thio)pyrazin-2-yl)-3-chloro-5,7-dihydro-spiro[cyclopenta[b]pyridine-6,4′-piperidin]-5-amine], for which the inhibition at 0.1 µM on SHP2 worked out at 80%.

In the case of `Nc1ccc2c(c1)[C@@H](N)C1(CCN(c3cnc(Sc4ccnc(N)c4Cl)c(N)n3)CC1)C2` [Example 33, (S)-1′-(6-amino-5-((2-amino-3-chloropyridin-4-yl)thio)pyrazin-2-yl)-1,3-dihydrospiro[indene-2,4′-piperidine]-1,6-diamine], at SHP2, the inhibition at 0.1 µM amounted to 81%.

`Nc1nc(N2CCC3(CC2)Cc2ncccc2[C@H]3N)cnc1Sc1c(Cl)cncc1Cl` [Example 111, (S)-1′-(6-amino-5-((3,5-dichloro-pyridin-4-yl)thio)pyrazin-2-yl)-5,7-dihydrospiro [cyclopenta[b]pyridine-6,4′-piperidin]-5-amine]: the inhibition at 0.1 µM at SHP2 worked out at 82%.

Turning to `Nc1cccc(Sc2cnc(N3CCC4(CC3)Cc3ccccc3[C@H]4N)cn2)c1Cl` [Example 50, (S)-1′-(5-((3-amino-2-chlorophenyl)thio)pyrazin-2-yl)-1,3-dihydrospiro [indene-2,4′-piperidin]-1-amine], the inhibition at 0.1 µM on SHP2 came out at 77%.

Take `Nc1nc(N2CCC3(CC2)c2cccnc2C[C@H]3N)cnc1Sc1ccnc(N)c1Cl` [Example 72, (R)-1′-(6-amino-5-((2-amino-3-chloropyridin-4-yl)thio)pyrazin-2-yl)-6,7-dihydrospiro[cyclopenta [b]pyridine-5,4′-piperidin]-6-amine]: at SHP2, the inhibition at 0.1 µM came to 28%.

Consider `Nc1nc(N2CCC3(CC2)Cc2ncccc2[C@H]3N)cnc1Sc1cccnc1C(F)(F)F` [Example 114, (S)-1′-(6-amino-5-((2-(trifluoro-methyl)pyridin-3-yl)thio)pyrazin-2-yl)-5,7-dihydrospiro [cyclopenta [b]pyridine-6,4′-piperidin]-5-amine], for which the inhibition at 0.1 µM at SHP2 turned out to be 96%.

Regarding `NC(=O)c1cc2c(cc1F)CC1(CCN(c3cnc(Sc4ccnc(N)c4Cl)c(N)n3)CC1)[C@@H]2N` [Example 43, (S)-1-amino-1′-(6-amino-5-((2-amino-3-chloropyridin-4-yl)thio)pyrazin-2-yl)-5-fluoro-1,3-dihydro-spiro[indene-2, 4′-piperidine]-6-carboxamide], the inhibition at 0.1 µM on SHP2 was determined as 79%.

On to `Nc1nc(N2CCC3(CC2)Cn2ccc(=O)cc2C3N)cnc1Sc1ccnc(N)c1Cl` (stereo not shown) [Example 140, 1-amino-1′-(6-amino-5-((2-amino-3-chloropyridin-4-yl)thio)pyrazin-2-yl)-3H-spiro[indolizine-2,4′-piperidin]-7(1H)-one], for which the inhibition at 0.1 µM on SHP2 was determined as 14%.

In the case of `Nc1nc(N2CCC3(CC2)Cc2ccccc2[C@H]3N)cnc1Sc1ccnc(O)c1Cl` [Example 134, (S)-4-((3-amino-5-(1-amino-1,3-dihydrospiro[indene-2,4′-piperidin]-1′-yl)pyrazin-2-yl)thio)-3-chloropyridin-2-ol], the inhibition at 0.1 µM at SHP2 is 78%.

Turning to `Nc1nc(N2CCC3(CC2)Cc2ncccc2[C@H]3N)cnc1Sc1ccnc(O)c1Cl` [Example 136, (S)-4-((3-amino-5-(5-amino-5,7-dihydrospiro[cyclopenta[b]pyridine-6,4′-piperidin]-1′-yl)pyrazin-2-yl)thio)-3-chloropyridin-2-ol], the inhibition at 0.1 µM on SHP2 was determined as 83%.

With `Nc1nc(N2CCC3(CC2)Cc2ccc(-n4ccnc4)cc2[C@H]3N)cnc1Sc1ccnc(N)c1Cl` [Example 36, (S)-1′-(6-amino-5-((2-amino-3-chloropyridin-4-yl)thio)pyrazin-2-yl)-6-(1H-imidazol-1-yl)-1,3-dihydrospiro [indene-2,4′-piperidin]-1-amine], the inhibition at 0.1 µM at SHP2 was determined as 65%.
